Measured values as given in patent US11672828B2, “Cellular receptors and uses thereof” (TRUSTEES OF BOSTON UNIVERSITY, priority 2020, dated 2023).
“Also recorded” adds a separate entry of the source.

Tests used:
[1] = test system: apSyN; assay: Plated ligand assay, apSyN (AP-SynNotch) cells with UAS:H2B-mCherry reporter; assay type: cell-based; conditions: for reporter (mCherry) activation by plated ligand: apSyN/AP-SynNotch cells with or without BirA-ER (BirA-KDEL)
Description: In order to determine if the apSyN could undergo predicted signaling mechanics of extracellular binding and intracellular domain release based on the presence of the PTM, we used an established Notch signaling assay23 (FIG. 2A). […] We instead interrogated the signaling capabilities by coating tissue culture wells with an anti-Biotin antibody that is specific for biotinamide24.
Next to be evaluated were the signaling properties of AP-SynNotch. Here, the activity of the receptor in response to different ligands was compared in cells with and without BirA-KDEL. Using a receptor containing a Gal4-VP64 ICD, the signaling activity of AP-SynNotch was measured in transfected HEK293 cells containing a stably-integrated reporter gene (UAS:H2B-mCherry). In order to stimulate receptor activation, transfected cells were grown on culture surfaces containing immobilized ligands, and reporter expression levels were measured the next day using flow cytometry (FIG. 11D).

[2] = test system: anti-Biotin ligand; assay: Coculture luciferase assay, apSyN/BirA receiver cells with anti-Biotin ligand sender cells, soluble competitors; assay type: cell-based; conditions: different concentrations of the molecules in coculture
Experimental: To examine this behavior more quantitatively, we used an established luciferase-based coculture assay28. Receptor cells were transfected with a luciferase reporter plasmid, and ligand expressing cells were added the next day. Finally cells were lysed after one day of coculturing to examine the luminescence due to luciferase expression (FIG. 3C).
We also saw a similar ability to control activation with small molecules in this coculture assay. […] We sought to develop an inhibition method that is specific for this pathway and therefore allow for additional control of signaling without disrupting native pathways. […] We used the previously established coculture assay while culturing cells in different concentrations of the described molecules and then analyzed the corresponding luciferase expression.
(§1) The luciferase assay used for coculture studies was adapted from Gordon et al28. Synthetic Notch receiver cells were reverse transfected in a 96-well plate (50 k cells per well) with 9.9 ng of UAS:Firefly-Luciferase plasmid and 0.1 ng Nanoluc plasmid per well. 24 hr post-transfection, 80 k sender cells were added to each well. 48 hr post-transfection, cells were lysed (Nano-Glo Dual-Luciferase Reporter Assay System, Promega) and the luminescence was found following the manufacturer's instructions. Each well was normalized to the luminescence output of Nanoluc (transfection control).
Tight-regulation is a requirement of cell-engineered systems in biomedical applications, and such control can be achieved by combining genetic strategies with external drug-control. Thus, it was next sought to design exogenous molecules that could be combined with the present encodable components in order to achieve versatile “chemogenetic” control. Soluble binding proteins can be used to block trans-cellular interactions between endogenous Notch receptors and ligands. It was tested whether soluble biotin-derived compounds could be used to competitively interact between our synthetic ligand and receptor (FIG. 12G). […] In addition to their selective recognition by Anti-Biotinamide, the cell-impermeant nature of biocytin and bis-biotinamide offer the advantageous feature of limiting disruption/inhibition to cell-surface presented components.
as §1, with “al^59.” for “al28.”, “24 hr post-transfection, 80 k sender cells were added to each well.” left out, “(Nano-Go” for “(Nano-Glo”

[3] = test system: antiBiot synthetic Notch; assay: Plated ligand assay, antiBiot synthetic Notch (Anti-Biotinamide SynNotch) cells; conditions: soluble ligand introduced at the time of plating
Experimental: We first asked if this synthetic receptor cell line could activate to various ligands coated on a 96 well plate.
Nontreated 96-well plates were coated with Fibronectin (5 ng/mL) and plated ligand in 50 μL PBS for 1-hr. Initial experiments were done with a serial dilution of ligand to determine working concentrations. The wells were rinsed three times with 200 μL PBS, and 40 k synthetic Notch receiver cells were plated in each well. Receptor activation was measured 24 hr post-plating via fluorescence microscopy or flow cytometry.
Cells analyzed with an Attune NxT flow cytometer and were gated for living cells by scatter detection. The percent activation was determined by calculating the percentage of cells with mCherry expression levels above a certain threshold.
Nontreated 96-well plates were coated with Fibronectin (5 ng/mL) and plated ligand in 50 μL PBS for 1 hr. […] Receptor activation was measured 24 hr post-plating via fluorescence microscopy or flow cytometry.
Flow Cytometry Cells analyzed with an Attune NxT flow cytometer and were gated for single cells by scatter detection (FIGS. 19A-19C). Output files were analyzed with a custom MATLAB (Mathworks) script. The percent activation was determined by calculating the percentage of cells with mCherry expression levels above a determined threshold using the non-transfected control as a guide.

[4] = test system: avidin; conditions: avidin-based systems; cited from earlier work
[5] = test system: anti-FITC Synthetic Notch; assay: Coculture of anti-FITC Synthetic Notch cells and anti-biotin ligand cells with biotin-FITC linker (Luciferase reporter); assay type: cell-based; conditions: FIG. 20
Description: FIG. 20 depicts graphs in which the x-axis of the plot is the biotin-FTC concentration, the y-axis is the extent of signaling (via a Luciferase reporter). The legend gives two different sender-cells used in the coculture—one with the anti-biotin ligand, and one without.
Described herein is the use of biotin-FITC as a small-molecule linker with the ability to induce trans-cellular signaling. In this coculture system, a first group of cells expressed an anti-FITC Synthetic Notch, which can bind one end of the biotin-FITC, and a second group of cells expressed an anti-biotin ligand (described in other Examples herein), which binds the other end.

[6] = test system: scFab-Gal4 and AP-VP64; assay: UAS:H2B-mCherry reporter cells with scFab-Gal4, AP-VP64 and BirA, treated with soluble biotinamides; assay type: cell-based; conditions: varying concentrations, compared with biocytin
Experimental: Reporter HEK293 cells with an integrated UAS:H2B-mCherry construct were transfected with a construct containing constitutive expression of AP-VP64 and AntiBiotinamide-scFAB-Gal4. The cells were cotransfected with a construct containing Citrine-HA-BirA. At the time of transfection, samples were incubated with different concentrations of Biocytin and Biotin-cadaverine. Samples were measured the next day with flow cytometry, gating for Citrine expression.
Lastly, it was asked whether intracellular protein complexes could be disrupted using exogenously applied biotinamide. To test this possibility, cells were treated with biocytin as well as biotin-cadaverine, a membrane-permeant biotinamide derivative (6). To measure the disruption of intracellular complexes, BirA was co-expressed alongside scFab-Gal4 and AP-VP64 in UAS:H2B-mCherry reporter cells, and the extent of mCherry expression was quantified from cells treated with varying concentrations of biocytin and biotin-cadaverine (FIG. 18A).

[7] = test system: Anti-Biotinamide SynNotch; assay: Anti-Biotinamide SynNotch cells on TCO-BSA coated wells with added biotin-tetrazine, flow cytometry; assay type: cell-based
Description: (FIG. 13A). Receptors that are specific to biotinamide process inputs dependent on the biotinylation state of the ligand. (FIG. 13B). Anti-Biotinamide SynNotch expressing cells activate to both biotin-based and desthiobiotin-based substrates. The cells activate with slightly less adsorbed biotin than desthiobiotin. (FIG. 13C). Cells expressing Anti-Biotinamide SynNotch were cocultured with cells transfected with an AP-tagged cell surface ligand with or without BirA, or non-transfected cells. (FIG. 13D). Biotin-tetrazine (4) is a bispecific molecule that will bind to the Anti-Biotinamide antibody fragment and TCO-(5), which is conjugated to BSA. (FIG. 13E). Anti-Biotinamide SynNotch expressing cells cultured on TCO-conjugated BSA will bind to exogenously added biotin-tetrazine. (FIG. 13F). Anti-Biotinamide SynNotch expressing cells were cultured on wells coated with TCO-BSA and one day later, biotin-tetrazine was added at different concentrations to the wells. At two days after plating, cellular fluorescence was analyzed with flow cytometry.
In an effort to develop synthetic agonists, a bioorthogonal chemical ligation was also exploited in order to convert a soluble biotin derivative into an immobilized (signaling competent) ligand in situ. […]

[8] = free biotin versus biotin with an amide linker; cited from earlier work

## C[C@H](NC(=O)Cc1cc(F)cc(F)c1)C(=O)N[C@H](C(=O)OC(C)(C)C)c1ccccc1 [DAPT]
[1]; plated anti-Biotin or anti-myc antibody
  effect of Notch pathway (γ-secretase) inhibitor on mCherry expression: ablated mCherry expression in all cases

## N[C@@H](CCCCNC(=O)CCCC[C@@H]1SC[C@@H]2NC(=O)N[C@@H]21)C(=O)O [biocytin]
[2]
  inhibition of cell signaling (luciferase) by competitive binding to the ligand: able to inhibit cell signaling to some degree; also recorded: act as inhibitors of signaling
[3]
  concentration at which activation was lowered: 3 µM

## O=C(O)CCCC[C@@H]1SC[C@@H]2NC(=O)N[C@@H]21 [biotin]
[2]
  inhibition of cell signaling (luciferase) by competitive binding to the ligand: limited impact on cell signaling

## C[C@@H]1NC(=O)N[C@@H]1CCCCCC(=O)O [desthiobiotin]
[4]
  binding constant, fold less than biotin: 106 fold

## Neutravidin: adsorbed biotin-binding protein
[1]
  reporter (mCherry) activation by plated ligand: able to activate apSyN cells, but has decreased activation at higher concentrations
[1]; listed as neutravidin
  reporter (mCherry) activation by plated ligand: can activate the biotinylated receptor

## biotin-FITC
[5]
  signaling capacity versus concentration: low concentrations do not induce signaling, and high concentrations lead to lower signaling

## biotin-cadaverine
[6]
  inhibition of intracellular biotin-dependent reporter (mCherry) expression: more sensitive
[6]; listed as Biotin-cadaverine
  inhibition of intracellular biotin-dependent reporter (mCherry) expression: effective competitive inhibitor

## biotin-tetrazine
[7]; biotin-tetrazine added one day after plating on TCO-BSA
  reporter activation: able to activate reporter expression only when cultured with biotin-tetrazine
[7]; high concentrations of biotin-tetrazine
  inhibition of receptor activation: inhibited with high concentrations

## bis-biotinamide
[2]
  inhibition of cell signaling (luciferase) by competitive binding to the ligand: more potent inhibition
[2]; listed as Bis-biotinamide
  inhibition of cell signaling (luciferase) by competitive binding to the ligand: increased ability to inhibit cell activation; also recorded: inhibits more effectively

B1: biotinamide-specific antibody: antibody from which the anti-biotinamide single chain variable fragment was developed (antibody)
heavy: EVQLQQSGAELVKPGASVKLSCTSSGFNNKDTFFQWVKQRPEEGLEWIGRIDPANGFTKYDPKFQGKATITVDTSSNTAYLQLNSLTSEDTALYYCTRWDTYGAAWFAYWGQGTLVTVSAAKTTPPSVYPLAPGSAAQTNSMVTLGCLVKGYFPEPVTVTWNSGSLSSGVHTFPAVLQSDLYTLSSSVTVPSSTWPSETVTCNVAHPASSTKVDKKIVPR
light: DIQMTQSPASLSASVGETVTITCRASGNIHNYLSWFQQKQGKSPQLLVYSAKTLADGVPSRFSGSGSGTQYSLKINSLQPEDFGTYYCQHFWSSIYTFGGGTKLEIKRADAAPTVSIFPPSSEQLTSGGASVVCFLNNFYPKDINVKWKIDGSERQNGVLNSWTDQDSKDSTYSMSSTLTLTKDEYERHNSYTCEATHKTSTSPIVKSFNRNEC
[8]
  binding specificity: does not bind to free biotin but binds to biotin with an amide linker
